Source: PMC9249674, “A small-molecule Skp1 inhibitor elicits cell death by p53-dependent mechanism” (iScience, 2022)
Like-named read-outs stand apart in the source and are kept apart here.

Tests used:
[1] = biological target: T1, Skp1 interaction with Skp2 (Homo sapiens, UniProt P63208); assay: Cell-based FRET assay in HEK293 cells; details: 4 hrs, increasing concentrations
T1 construct: host or cells: HEK293

HCT116 = assay: Cell viability assay (Cell-Titer GLO); assay type: cell-based; details: Homo sapiens, HCT-116, Colon carcinoma, 48 hrs, read-out: Anti-proliferative EC50
Description: (§1) For cell viability, cells were seeded in 384 opaque-walled plates with clear bottoms at 300–500 cells per well (optimum density for growth) in a total volume of 20 μL of media. The media was according to culture conditions of each individual cell line (mentioned above). After 12 hrs, compounds were added in a total volume of 5 μL of media (two-fold diluted) to each well with final concentrations from 5 nM to 30 μM. The measurements were conducted 48 hrs after seeding of the cells. Then, 25 μL of Cell-Titer GLO reagent (Promega) was added, and luminescence was measured on an EnSpire multimode plate reader (PerkinElmer), according to the manufacturer’s instructions. The estimated in vitro half-maximal inhibitory concentration (EC50) values were calculated using GraphPad Prism® v6.0 (San Diego, CA) software. The cell viability for A549 cells was also performed for 72- and 96-hrs by using the same experimental conditions as described above.

MGC-803 = assay: Cell viability assay (Cell-Titer GLO); assay type: cell-based; details: Homo sapiens; MGC-803^c; Gastric cancer; p53 null or mutant cancer cell lines; 48 hrs; read-out: Anti-proliferative EC50
Description: as §1

Hela = assay: Cell viability assay (Cell-Titer GLO); assay type: cell-based; details: Homo sapiens, Cervical cancer, 48 hrs, read-out: Anti-proliferative EC50
Description: as §1

MCF-7 = assay: Cell viability assay (Cell-Titer GLO); assay type: cell-based; details: Homo sapiens, MCF7, Breast cancer, 48 hrs, read-out: Anti-proliferative EC50
Description: as §1

MKN-7 = assay: Cell viability assay (Cell-Titer GLO); assay type: cell-based; details: Homo sapiens; MKN-7^c; Gastric cancer; p53 null or mutant cancer cell lines; 48 hrs; read-out: Anti-proliferative EC50
Description: as §1

H1299 = assay: Cell viability assay (Cell-Titer GLO); assay type: cell-based; details: Homo sapiens, NCI-H1299; H1299^b; Lung cancer; p53 null or mutant cancer cell lines; 48 hrs; read-out: Anti-proliferative EC50
Description: as §1

A431 = assay: Cell viability assay (Cell-Titer GLO); assay type: cell-based; details: Homo sapiens, A-431; A431^c; Skin carcinoma; p53 null or mutant cancer cell lines; 48 hrs; read-out: Anti-proliferative EC50
Description: as §1

HepG2 = assay: Cell viability assay (Cell-Titer GLO); assay type: cell-based; details: Homo sapiens, Liver cancer, 48 hrs, read-out: Anti-proliferative EC50
Description: as §1

Du145 = assay: Cell viability assay (Cell-Titer GLO); assay type: cell-based; details: Homo sapiens, DU-145, Prostate cancer, 48 hrs, read-out: Anti-proliferative EC50
Description: as §1

H358 = assay: Cell viability assay (Cell-Titer GLO); assay type: cell-based; details: Homo sapiens, NCI-H358; H358^b; Lung cancer; p53 null or mutant cancer cell lines; 48 hrs; read-out: Anti-proliferative EC50
Description: as §1

LLC = assay: Cell viability assay (Cell-Titer GLO); assay type: cell-based; details: Lewis lung carcinoma; LLC^a; Lung cancer; 48 hrs; read-out: Anti-proliferative EC50
Description: as §1

H1650 = assay: Cell viability assay (Cell-Titer GLO); assay type: cell-based; details: Homo sapiens, NCI-H1650, Lung cancer, 48 hrs, read-out: Anti-proliferative EC50
Description: as §1

K562 = assay: Cell viability assay (Cell-Titer GLO); assay type: cell-based; details: Homo sapiens, Leukemia, 48 hrs, read-out: Anti-proliferative EC50
Description: as §1

Huh-7 = assay: Cell viability assay (Cell-Titer GLO); assay type: cell-based; details: Homo sapiens, Liver cancer, 48 hrs, read-out: Anti-proliferative EC50
Description: as §1

U2OS = assay: Cell viability assay (Cell-Titer GLO); assay type: cell-based; details: Homo sapiens, Osteosarcoma, 48 hrs, read-out: Anti-proliferative EC50
Description: as §1

Hs578T = assay: Cell viability assay (Cell-Titer GLO); assay type: cell-based; details: Homo sapiens, Hs-578T, Breast cancer, 48 hrs, read-out: Anti-proliferative EC50
Description: as §1

NCI-N87 = assay: Cell viability assay (Cell-Titer GLO); assay type: cell-based; details: Homo sapiens; NCI-N87^c; Gastric cancer; p53 null or mutant cancer cell lines; 48 hrs; read-out: Anti-proliferative EC50
Description: as §1

22RV1 = assay: Cell viability assay (Cell-Titer GLO); assay type: cell-based; details: Homo sapiens, Prostate cancer, 48 hrs, read-out: Anti-proliferative EC50
Description: as §1

LNCaP = assay: Cell viability assay (Cell-Titer GLO); assay type: cell-based; details: Homo sapiens, Prostate cancer, 48 hrs, read-out: Anti-proliferative EC50
Description: as §1

H460 = assay: Cell viability assay (Cell-Titer GLO); assay type: cell-based; details: Homo sapiens, NCI-H460, Lung cancer, 48 hrs, read-out: Anti-proliferative EC50
Description: as §1

βTC6 = assay: Cell viability assay (Cell-Titer GLO); assay type: cell-based; details: βTC6^a; Pancreatic insulinoma; 48 hrs; read-out: Anti-proliferative EC50
Description: as §1

MDA-MB-231 = assay: Cell viability assay (Cell-Titer GLO); assay type: cell-based; details: Homo sapiens, Breast cancer, 48 hrs, read-out: Anti-proliferative EC50
Description: as §1

C4-2B = assay: Cell viability assay (Cell-Titer GLO); assay type: cell-based; details: Prostate cancer, 48 hrs, read-out: Anti-proliferative EC50
Description: as §1

95D = assay: Cell viability assay (Cell-Titer GLO); assay type: cell-based; details: Lung cancer, 48 hrs, read-out: Anti-proliferative EC50
Description: as §1

A549 cells = assay: Cell viability assay (Cell-Titer GLO); assay type: cell-based, human; details: for EC50: Homo sapiens
Description: as §1, with “The” for “For cell viability, cells were seeded in 384 opaque-walled plates with clear bottoms at 300–500 cells per well (optimum density for growth) in a total volume of 20 μL of media. The”

T1 sequence (P63208 whole entry): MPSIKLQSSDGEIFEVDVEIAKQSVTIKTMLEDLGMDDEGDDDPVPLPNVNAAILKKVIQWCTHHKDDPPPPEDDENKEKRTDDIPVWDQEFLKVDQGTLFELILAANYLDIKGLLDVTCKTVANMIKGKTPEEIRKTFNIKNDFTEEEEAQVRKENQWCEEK

Q: Which results are given for Nc1ccc(-c2nc3ccccc3c3[nH]c4ccccc4c23)cc1 [Z0933M]?
A: inhibition of Skp1-Skp2 interaction (FRET ratio) [1]: significant inhibition; EC50 (HCT116): 2820 ± 330 nM; EC50 (MGC-803): > 30000 nM; EC50 (Hela): 360 ± 60 nM; EC50 (MCF-7): 1460 ± 10 nM; EC50 (MKN-7): > 30000 nM; EC50 (H1299): 11500 ± 210 nM; EC50 (A431): > 30000 nM; EC50 (HepG2): 4080 ± 950 nM; EC50 (Du145): 250 ± 20 nM; EC50 (H358): 14900 ± 420 nM; EC50 (LLC): 1850 ± 350 nM; EC50 (H1650): 2350 ± 450 nM; EC50 (K562): 735 ± 30 nM; EC50 (Huh-7): 3600 ± 810 nM; EC50 (U2OS): 970 ± 90 nM; EC50 (Hs578T): 2490 ± 70 nM; EC50 (NCI-N87): > 30000 nM; EC50 (22RV1): 1110 ± 100 nM; EC50 (LNCaP): 880 ± 30 nM; EC50 (H460): 2690 ± 70 nM; EC50 (βTC6): 370 ± 7 nM; EC50 (MDA-MB-231): 2900 ± 630 nM; EC50 (C4-2B): 1900 ± 70 nM; EC50 (95D): 3140 ± 260 nM; anti-proliferative potency relative to 6-OAP (A549 cells; A549 cells, 48 h, ratio of EC50 values): approximately 24 times; EC50 (A549 cells; A549, Lung cancer, 48 h, read-out: Anti-proliferative EC50): 580 ± 70 nM; EC50 (A549 cells; A549 cells, 72 hrs, read-out: EC50): 99 ± 1 nM; EC50 (A549 cells; A549 cells, 96 hrs, read-out: EC50): 66 ± 18 nM
